Measurements reported in patent publication US10738028B2, “Spiro three-membered ring, spiro five-membered ring peptide deformylase inhibitor and use thereof in antibacteria and anti-tumor” (priority 2016, dated 2020).
≈ marks a conversion by molar mass, not a printed value.

Experiments:
Type in all cases: cell-based
[1] = test system: Enterococcus faecalis (EFA); experiment: MIC, two-fold agar dilution (CLSI), clinical isolates
In short: (§1)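 Test samples were assayed by the CLSI-recommended two-fold agar dilution method, and the minimum inhibitory concentration against each tested strain was determined.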

[2] = test system: Enterococcus faecium (EFM); experiment: as above
In short: as §1

[3] = test system: Escherichia coli (including ESBLs, non-ESBLs); experiment: as above
In short: as §1

[4] = test system: Moraxella catarrhalis (BCA); experiment: as above
In short: as §1

[5] = test system: Streptococcus pneoumoniae (SPN); experiment: as above
In short: as §1

[6] = test system: methicillin-resistant Staphylococcus aureus (MRSA); experiment: as above
In short: as §1

[7] = test system: methicillin-resistant Staphylococcus epidermidis (MRSE); experiment: as above
In short: as §1

[8] = test system: methicillin-sensitive Staphylococcus aureus (MSSA); experiment: as above
In short: as §1

[9] = test system: methicillin-sensitive Staphylococcus epidermidis (MSSE); experiment: as above
In short: as §1

[10] = test system: HCT-116 colorectal cancer cell line; experiment: CCK-8 proliferation inhibition; settings: concentration of 30 μM, 72 hours, CCK-8; for HCT116 inhibition rate/%: 30 µM
In short: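 Viability read-out: 1:10 diluted CCK-8 after 72 h compound exposure at 37 °C, 5% CO2. Cells (2000/well, McCoy's 5A plus 10% newborn bovine serum) pre-cultured overnight; vehicle control 1‰ DMSO.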

[11] = test system: A549 lung cancer cell line; experiment: CCK-8 proliferation inhibition; settings: concentration of 30 μM; for inhibition at 30 µM: Homo sapiens, A549, 72 h
In short: (§2)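 Plating at 2000 cells/well, then incubation overnight at 37° C. Next, a range of compound concentrations for 72 hours (control 1‰ DMSO). Finally, medium decanted and CCK-8 diluted 1:10 added.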

[12] = test system: BEL-7402 liver cancer cell line; experiment: CCK-8 proliferation inhibition; settings: concentration of 30 μM, 72 hours, 30 µM
In short: as §2

[13] = test system: MGC-803 gastric cancer cell line; experiment: CCK-8 proliferation inhibition; settings: concentration of 30 μM; for inhibition at 30 µM: Homo sapiens, MGC-803, 72 h; for Inhibition of proliferation, Gastric cancer MGC-803: 72 hours, 30 µM
In short: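 Growth inhibition measured by CCK-8 read-out after 72 h continuous compound treatment, 1‰ DMSO vehicle as control. Cells plated 2000/well the night before at 37 °C, 5% CO2; medium was 1640 for Jurkat and MGC-803, F12 for PC3, DMEM high glucose for MCF-7, each with 10% newborn bovine serum.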

[14] = MIC in vitro anti-bacterial experiments, Gram-positive bacteria; settings: lowest MIC reached; read-out: minimum inhibitory concentration against Gram-positive bacteria
Source text: 1. The invention adopts the two-fold agar dilution method recommended by the operating procedure of antimicrobial susceptibility testing set by American Clinical and Laboratory Standards Institute (CLSI) to determine the Minimum Inhibitory Concentration (MIC) of the test samples against the tested strains.

## CC(C)(C)c1cc(NC(=O)[C@@H]2CC3(CC3)CN2C(=O)[C@H](CC2CCCC2)CN(O)C=O)no1 [Example 38]
[1]; strain EFA 15-1
  MIC (anti-bacterial activity): 4 µg/mL (≈ 8.68 µM)
[1]; strain EFA 15-2
  MIC (anti-bacterial activity): 4 µg/mL (≈ 8.68 µM)
[1]; strain EFA 15-3
  MIC (anti-bacterial activity): 0.25 µg/mL (≈ 0.543 µM)
[1]; strain EFA 15-4
  MIC (anti-bacterial activity): 4 µg/mL (≈ 8.68 µM)
[1]; strain EFA 15-5
  MIC (anti-bacterial activity): 4 µg/mL (≈ 8.68 µM)
[1]; strain EFA 15-6
  MIC (anti-bacterial activity): 4 µg/mL (≈ 8.68 µM)
[1]; strain EFA 15-9
  MIC (anti-bacterial activity): 4 µg/mL (≈ 8.68 µM)
[2]; strain EFM 15-1
  MIC (anti-bacterial activity): 0.25 µg/mL (≈ 0.543 µM)
[2]; strain EFM 15-2
  MIC (anti-bacterial activity): 0.25 µg/mL (≈ 0.543 µM)
[2]; strain EFM 15-3
  MIC (anti-bacterial activity): 0.25 µg/mL (≈ 0.543 µM)
[2]; strain EFM 15-4
  MIC (anti-bacterial activity): 0.5 µg/mL (≈ 1.09 µM)
[2]; strain EFM 15-5
  MIC (anti-bacterial activity): 0.25 µg/mL (≈ 0.543 µM)
[2]; strain EFM 15-6
  MIC (anti-bacterial activity): 0.5 µg/mL (≈ 1.09 µM)
[3]; strain ECO+ 15-1
  MIC (anti-bacterial activity): 16 µg/mL (≈ 34.7 µM)
[3]; strain ECO+ 15-2
  MIC (anti-bacterial activity): 32 µg/mL (≈ 69.5 µM)
[3]; strain ECO+ 15-3
  MIC (anti-bacterial activity): 16 µg/mL (≈ 34.7 µM)
[3]; strain ECO+ 15-4
  MIC (anti-bacterial activity): 16 µg/mL (≈ 34.7 µM)
[3]; strain ECO− 15-1
  MIC (anti-bacterial activity): 16 µg/mL (≈ 34.7 µM)
[3]; strain ECO− 15-2
  MIC (anti-bacterial activity): 32 µg/mL (≈ 69.5 µM)
[3]; strain ECO− 15-3
  MIC (anti-bacterial activity): 32 µg/mL (≈ 69.5 µM)
[3]; strain ECO− 15-4
  MIC (anti-bacterial activity): 32 µg/mL (≈ 69.5 µM)
[4]; clinical isolate BCA 14-10
  Anti-bacterial activity (MIC), strain BCA 14-10: 0.25 µg/mL
[4]; strain BCA 14-1
  MIC (anti-bacterial activity): 0.25 µg/mL (≈ 0.543 µM)
[4]; strain BCA 14-4
  MIC (anti-bacterial activity): 1 µg/mL (≈ 2.17 µM)
[4]; strain BCA 14-5
  MIC (anti-bacterial activity): 0.5 µg/mL (≈ 1.09 µM)
[4]; strain BCA 14-6
  MIC (anti-bacterial activity): 1 µg/mL (≈ 2.17 µM)
[4]; strain BCA 14-7
  MIC (anti-bacterial activity): 0.25 µg/mL (≈ 0.543 µM)
[4]; strain BCA 14-8
  MIC (anti-bacterial activity): 0.25 µg/mL (≈ 0.543 µM)
[5]; strain SPN 16-2
  MIC (anti-bacterial activity): 0.25 µg/mL (≈ 0.543 µM)
[5]; strain SPN 16-4
  MIC (anti-bacterial activity): 0.5 µg/mL (≈ 1.09 µM)
[6]; strain MRSA 15-1
  MIC (anti-bacterial activity): 0.125 µg/mL (≈ 0.271 µM)
[6]; strain MRSA 15-2
  MIC (anti-bacterial activity): 0.125 µg/mL (≈ 0.271 µM)
[6]; strain MRSA 15-3
  MIC (anti-bacterial activity): 0.125 µg/mL (≈ 0.271 µM)
[6]; strain MRSA 15-4
  MIC (anti-bacterial activity): 0.25 µg/mL (≈ 0.543 µM)
[7]; strain MRSE 15-1
  MIC (anti-bacterial activity): 0.25 µg/mL (≈ 0.543 µM)
[7]; strain MRSE 15-2
  MIC (anti-bacterial activity): 0.25 µg/mL (≈ 0.543 µM)
[7]; strain MRSE 15-3
  MIC (anti-bacterial activity): 0.25 µg/mL (≈ 0.543 µM)
[7]; strain MRSE 15-7
  MIC (anti-bacterial activity): 0.25 µg/mL (≈ 0.543 µM)
[8]; strain MSSA 15-3
  MIC (anti-bacterial activity): 0.25 µg/mL (≈ 0.543 µM)
[8]; strain MSSA 15-4
  MIC (anti-bacterial activity): 0.25 µg/mL (≈ 0.543 µM)
[8]; strain MSSA 15-5
  MIC (anti-bacterial activity): 0.125 µg/mL (≈ 0.271 µM)
[8]; strain MSSA 15-6
  MIC (anti-bacterial activity): 0.125 µg/mL (≈ 0.271 µM)
[9]; strain MSSE 15-3
  MIC (anti-bacterial activity): 0.25 µg/mL (≈ 0.543 µM)
[9]; strain MSSE 15-4
  MIC (anti-bacterial activity): 0.25 µg/mL (≈ 0.543 µM)
[9]; strain MSSE 15-5
  MIC (anti-bacterial activity): 0.25 µg/mL (≈ 0.543 µM)
[9]; strain MSSE 15-6
  MIC (anti-bacterial activity): < 0.008 µg/mL
[10]; Homo sapiens, HCT-116, 72 h, read-out: HCT116 inhibition rate/%
  inhibition at 30 µM: > 50%
[10]
  HCT116 inhibition rate/%: 52%
[11]
  inhibition at 30 µM: 38%
[12]
  Inhibition of proliferation, Liver cancer BEL-7402: 75%
[13]
  inhibition at 30 µM: > 50%
  Inhibition of proliferation, Gastric cancer MGC-803: 50%
[14]
  MIC: < 0.008 µg/mL

## O=C(C[C@@H](CC1CCCC1)C(=O)N1CC2(CC2)C[C@H]1C(=O)Nc1nccs1)NO [Example 72, (S)-5-((R)-2-(cyclopentylmethyl)-4-(hydroxyamino)-4-oxobutanoyl)-N-(thiazol-2-yl)-5-azaspiro[2.4]heptane-6-carboxamide]
[1]; strain EFA 15-1
  Anti-bacterial activity (MIC): 32 µg/mL
[1]; strain EFA 15-2
  Anti-bacterial activity (MIC): 32 µg/mL
[1]; strain EFA 15-3
  Anti-bacterial activity (MIC): 32 µg/mL
[1]; strain EFA 15-4
  Anti-bacterial activity (MIC): 32 µg/mL
[1]; strain EFA 15-5
  Anti-bacterial activity (MIC): 32 µg/mL
[1]; strain EFA 15-6
  Anti-bacterial activity (MIC): 32 µg/mL
[1]; strain EFA 15-9
  Anti-bacterial activity (MIC): 2 µg/mL
[2]; strain EFM 15-1
  Anti-bacterial activity (MIC): 32 µg/mL
[2]; strain EFM 15-2
  Anti-bacterial activity (MIC): 32 µg/mL
[2]; strain EFM 15-3
  Anti-bacterial activity (MIC): 32 µg/mL
[2]; strain EFM 15-4
  Anti-bacterial activity (MIC): 0.5 µg/mL
[2]; strain EFM 15-5
  Anti-bacterial activity (MIC): 0.125 µg/mL
[2]; strain EFM 15-6
  Anti-bacterial activity (MIC): 0.5 µg/mL
[3]; clinical isolate ECO+ 15-1
  Anti-bacterial activity (MIC), strain ECO+ 15-1: 16 µg/mL
[3]; clinical isolate ECO+ 15-2
  Anti-bacterial activity (MIC), strain ECO+ 15-2: 16 µg/mL
[3]; clinical isolate ECO+ 15-3
  Anti-bacterial activity (MIC), strain ECO+ 15-3: 16 µg/mL
[3]; clinical isolate ECO+ 15-4
  Anti-bacterial activity (MIC), strain ECO+ 15-4: 16 µg/mL
[3]; clinical isolate ECO− 15-1
  Anti-bacterial activity (MIC), strain ECO− 15-1: 16 µg/mL
[3]; clinical isolate ECO− 15-2
  Anti-bacterial activity (MIC), strain ECO− 15-2: 16 µg/mL
[3]; clinical isolate ECO− 15-3
  Anti-bacterial activity (MIC), strain ECO− 15-3: 16 µg/mL
[3]; clinical isolate ECO− 15-4
  Anti-bacterial activity (MIC), strain ECO− 15-4: 16 µg/mL
[4]; strain BCA 14-1
  Anti-bacterial activity (MIC): 0.25 µg/mL
[4]; strain BCA 14-4
  Anti-bacterial activity (MIC): 0.5 µg/mL
[4]; strain BCA 14-5
  Anti-bacterial activity (MIC): 0.125 µg/mL
[4]; strain BCA 14-6
  Anti-bacterial activity (MIC): 0.125 µg/mL
[4]; strain BCA 14-7
  Anti-bacterial activity (MIC): 0.5 µg/mL
[4]; strain BCA 14-8
  Anti-bacterial activity (MIC): 0.25 µg/mL
[4]; strain BCA 14-10
  Anti-bacterial activity (MIC): 0.125 µg/mL
[5]; strain SPN 16-2
  Anti-bacterial activity (MIC): 0.5 µg/mL
[5]; strain SPN 16-4
  Anti-bacterial activity (MIC): 0.25 µg/mL
[6]; clinical isolate MRSA 15-1
  Anti-bacterial activity (MIC), strain MRSA 15-1: 0.06 µg/mL
[6]; clinical isolate MRSA 15-2
  Anti-bacterial activity (MIC), strain MRSA 15-2: 0.125 µg/mL
[6]; clinical isolate MRSA 15-3
  Anti-bacterial activity (MIC), strain MRSA 15-3: 0.06 µg/mL
[6]; clinical isolate MRSA 15-4
  Anti-bacterial activity (MIC), strain MRSA 15-4: 0.125 µg/mL
[7]; clinical isolate MRSE 15-1
  Anti-bacterial activity (MIC), strain MRSE 15-1: 0.03 µg/mL
[7]; clinical isolate MRSE 15-2
  Anti-bacterial activity (MIC), strain MRSE 15-2: 0.125 µg/mL
[7]; clinical isolate MRSE 15-3
  Anti-bacterial activity (MIC), strain MRSE 15-3: 0.125 µg/mL
[7]; clinical isolate MRSE 15-7
  Anti-bacterial activity (MIC), strain MRSE 15-7: 0.125 µg/mL
[8]; clinical isolate MSSA 15-3
  Anti-bacterial activity (MIC), strain MSSA 15-3: 0.125 µg/mL
[8]; clinical isolate MSSA 15-4
  Anti-bacterial activity (MIC), strain MSSA 15-4: 0.06 µg/mL
[8]; clinical isolate MSSA 15-5
  Anti-bacterial activity (MIC), strain MSSA 15-5: 0.03 µg/mL
[8]; clinical isolate MSSA 15-6
  Anti-bacterial activity (MIC), strain MSSA 15-6: 16 µg/mL
[9]; clinical isolate MSSE 15-3
  Anti-bacterial activity (MIC), strain MSSE 15-3: 0.06 µg/mL
[9]; clinical isolate MSSE 15-4
  Anti-bacterial activity (MIC), strain MSSE 15-4: 0.125 µg/mL
[9]; clinical isolate MSSE 15-5
  Anti-bacterial activity (MIC), strain MSSE 15-5: 0.125 µg/mL
[9]; clinical isolate MSSE 15-6
  Anti-bacterial activity (MIC), strain MSSE 15-6: < 0.008 µg/mL
[10]
  HCT116 inhibition rate/%: 75%
[11]
  inhibition at 30 µM: > 50%
[11]; 72 hours, 30 µM
  Inhibition of proliferation, Lung cancer A549: 50%
[12]
  Inhibition of proliferation, Liver cancer BEL-7402: 76%
[13]
  inhibition at 30 µM: > 50%
  Inhibition of proliferation, Gastric cancer MGC-803: 63%
[14]
  MIC: < 0.008 µg/mL
